In PubChem BioAssay (NCI):
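48-hour exposure; five concentrations; linearly interpolated endpoints. GI50 = concentration required for 50% inhibition of growth. TGI: total growth inhibition.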

Tests used:
Test in all cases: NCI tumour cell line growth inhibition, 48 h
[1] = tested on: M14 melanoma
[2] = tested on: IGROV1 ovarian
[3] = tested on: CAKI-1 renal
[4] = tested on: SK-OV-3 ovarian
[5] = tested on: MOLT-4 leukemia
[6] = tested on: MCF7 breast
[7] = tested on: HOP-62 NSCLC
[8] = tested on: KM12 colon
[9] = tested on: BT-549 breast
[10] = tested on: U251 CNS

SMILES: COc1ccc(-c2cc(-c3cc4cc(Br)ccc4nc3Cl)c(C#N)c(N)n2)cc1
- TGI [1]: > 12.5 µM
- TGI [2]: > 12.5 µM
- TGI [3]: > 12.5 µM
- TGI [4]: > 12.5 µM
- TGI [5]: > 12.5 µM
- TGI [6]: > 12.5 µM
- TGI [7]: > 12.5 µM
- TGI [8]: > 12.5 µM
- TGI [9]: > 12.5 µM

SMILES: CC(=O)c1c(C(F)(F)F)n([O-])c2cc(Cl)c(Cl)cc2[n+]1=O
- TGI [1]: 2.61 µM
- TGI [2]: 0.498 µM
- TGI [10]: 2.63 µM
- TGI [3]: 3.33 µM
- TGI [4]: 2.9 µM
- TGI [5]: 0.544 µM
- TGI [6]: 1.52 µM
- TGI [7]: 0.887 µM
- TGI [8]: 0.403 µM
- TGI [9]: 0.8 µM

SMILES: O=C(Nc1nc2ccccc2s1)c1cc([N+](=O)[O-])ccc1Cl
- TGI [1]: > 47.8 µM
- TGI [10]: > 91.6 µM
- TGI [3]: > 100 µM
- TGI [4]: > 100 µM
- TGI [5]: 9.93 µM
- TGI [6]: > 22.6 µM
- TGI [7]: > 100 µM
- TGI [8]: > 48.1 µM
- TGI [9]: > 30.9 µM

SMILES: Cc1ccc2c(c1C)C(=O)/C(=C/c1ccccc1C(=O)O)C2
- TGI [1]: > 100 µM
- TGI [2]: > 100 µM
- TGI [10]: > 100 µM
- TGI [3]: > 100 µM
- TGI [5]: > 100 µM
- TGI [6]: > 100 µM
- TGI [7]: > 100 µM
- TGI [8]: > 100 µM
- TGI [9]: > 100 µM

SMILES: CC1CC/C(=C\c2ccc(Cl)cc2)C2OC(N)=C(C#N)C(c3ccc(Cl)cc3)=C12 (stereo not given)
- TGI [1]: 39 µM
- TGI [2]: 26.5 µM
- TGI [10]: 30.6 µM
- TGI [3]: 31.2 µM
- TGI [4]: 40 µM
- TGI [5]: 24.2 µM
- TGI [6]: 29.8 µM
- TGI [7]: 9.84 µM
- TGI [8]: 28.8 µM
- TGI [9]: 30.7 µM

SMILES: O=c1c2cc(I)ccc2nc(-c2cccs2)n1-c1ccc(O)cc1
- TGI [1]: 29.3 µM
- TGI [2]: 46.7 µM
- TGI [10]: 48.5 µM
- TGI [3]: 32.9 µM
- TGI [5]: 78.9 µM
- TGI [6]: 32.8 µM
- TGI [7]: 32.4 µM
- TGI [8]: 25.1 µM
- TGI [9]: 27.9 µM

SMILES: C[C@@H]1CC[C@H]2C(C(O)CCCCC(O)C3=C(C(F)(F)F)O[C@@H]4O[C@@]5(C)CC[C@H]6[C@H](C)CC[C@@H]3[C@@]46OO5)=C(C(F)(F)F)O[C@@H]3O[C@@]4(C)CC[C@@H]1[C@]32OO4 (stereo not given in full)
- GI50 [2]: 15.6 µM
- TGI [2]: > 100 µM
- GI50 [10]: 19.8 µM
- TGI [10]: > 100 µM
- GI50 [3]: 5.72 µM
- TGI [3]: > 100 µM
- GI50 [4]: > 100 µM
- TGI [4]: > 100 µM
- GI50 [5]: 6.35 µM
- TGI [5]: > 100 µM
- GI50 [6]: 5.01 µM
- TGI [6]: > 100 µM
- GI50 [7]: 36.9 µM
- TGI [7]: > 100 µM
- GI50 [8]: 4.71 µM
- TGI [8]: > 100 µM
- GI50 [9]: 80.5 µM
- TGI [9]: > 100 µM

SMILES: c1ccc2c(c1)CCc1c-2n(CCN2CCOCC2)c2ccccc12
- TGI [1]: > 100 µM
- TGI [2]: > 100 µM
- TGI [10]: > 100 µM
- TGI [3]: > 100 µM
- TGI [4]: 82.9 µM
- TGI [5]: > 100 µM
- TGI [6]: > 100 µM
- TGI [7]: > 100 µM
- TGI [8]: 27.3 µM
- TGI [9]: > 100 µM

SMILES: CC(=O)Oc1c2oc3ccc(Cl)cc3c(=O)c2c(O)c2ccsc12
- TGI [1]: > 100 µM
- TGI [10]: > 100 µM
- TGI [3]: > 100 µM
- TGI [4]: > 100 µM
- TGI [6]: > 100 µM
- TGI [7]: > 100 µM
- TGI [8]: > 100 µM
- TGI [9]: > 100 µM

SMILES: COc1ccc2nc3cc([N+](=O)[O-])ccc3c(Nc3ccc(S(=O)(=O)NC(C)=O)cc3)c2c1
- TGI [1]: > 100 µM
- TGI [10]: > 100 µM
- TGI [3]: > 100 µM
- TGI [4]: > 100 µM
- TGI [5]: > 100 µM
- TGI [6]: > 100 µM
- TGI [7]: > 100 µM
- TGI [9]: > 100 µM

SMILES: O=C(c1cc(Cl)ccc1Cl)N1CCN(C(=O)c2cc(Cl)ccc2Cl)CC1
- TGI [1]: > 100 µM
- TGI [2]: > 100 µM
- TGI [10]: > 100 µM
- TGI [3]: > 100 µM
- TGI [5]: > 100 µM
- TGI [6]: > 100 µM
- TGI [7]: > 100 µM
- TGI [8]: > 100 µM
- TGI [9]: > 100 µM

SMILES: Cc1cc(N2CCCC2)nc(N(CCNc2ccnc3cc(Cl)ccc23)Cc2ccco2)n1
- GI50 [1]: 2.93 µM
- TGI [1]: > 100 µM
- GI50 [2]: 2.5 µM
- TGI [2]: > 100 µM
- GI50 [10]: 3.15 µM
- TGI [10]: 21.4 µM
- GI50 [4]: 7.16 µM
- TGI [4]: 38.8 µM
- GI50 [6]: 2.91 µM
- TGI [6]: > 100 µM
- GI50 [7]: 5.64 µM
- TGI [7]: 30 µM
- GI50 [8]: 3.86 µM
- TGI [8]: > 100 µM
- GI50 [9]: 5.74 µM
- TGI [9]: > 100 µM

SMILES: c1cn(C23C4C5C6C4C2C6C53)cn1 (stereo not given)
- TGI [1]: > 100 µM
- TGI [2]: > 100 µM
- TGI [10]: > 100 µM
- TGI [4]: > 100 µM
- TGI [5]: > 100 µM
- TGI [6]: > 100 µM
- TGI [7]: > 100 µM
- TGI [8]: > 100 µM
- TGI [9]: > 100 µM

SMILES: CCOC(=O)c1nc2ccc(C(F)(F)F)cc2nc1Oc1cc(OC)cc(OC)c1
- TGI [1]: > 100 µM
- TGI [2]: > 100 µM
- TGI [10]: > 100 µM
- TGI [4]: > 100 µM
- TGI [5]: > 100 µM
- TGI [6]: > 100 µM
- TGI [7]: > 100 µM
- TGI [8]: > 100 µM
- TGI [9]: > 100 µM

SMILES: O=c1[nH]nc(-c2ccccc2)n1/N=C/c1cccnc1
- TGI [1]: > 100 µM
- TGI [2]: > 100 µM
- TGI [10]: > 100 µM
- TGI [3]: 72.4 µM
- TGI [5]: > 100 µM
- TGI [6]: > 100 µM
- TGI [7]: > 100 µM
- TGI [8]: > 100 µM
- TGI [9]: > 100 µM

SMILES: O=c1cc(N2CCN(c3cc(=O)n4ccccc4n3)CC2)oc2ccccc12
- TGI [1]: > 100 µM
- TGI [2]: > 100 µM
- TGI [10]: > 100 µM
- TGI [3]: > 100 µM
- TGI [4]: > 100 µM
- TGI [5]: > 100 µM
- TGI [6]: > 100 µM
- TGI [8]: > 68.5 µM
- TGI [9]: > 100 µM

SMILES: CCN(CC)c1ccc2cc(C(=O)Nc3cccc4ccccc34)c(=N)oc2c1
- TGI [1]: > 100 µM
- TGI [2]: > 100 µM
- TGI [10]: > 100 µM
- TGI [3]: > 100 µM
- TGI [4]: > 100 µM
- TGI [6]: > 100 µM
- TGI [8]: > 100 µM
- TGI [9]: 62.1 µM

SMILES: CN1CCN(CCCBr)CC1
- TGI [1]: > 100 µM
- TGI [2]: > 100 µM
- TGI [10]: > 100 µM
- TGI [4]: > 100 µM
- TGI [6]: > 100 µM
- TGI [7]: > 100 µM
- TGI [8]: > 100 µM
- TGI [9]: > 100 µM

SMILES: CC1=NN(c2nc(N)nc(/C(C#N)=C/c3cccn3-c3cc(Cl)cc(Cl)c3)n2)C(C)(C)C1
- TGI [1]: > 100 µM
- TGI [2]: > 100 µM
- TGI [10]: 28.3 µM
- TGI [3]: > 100 µM
- TGI [4]: > 100 µM
- TGI [6]: > 100 µM
- TGI [7]: 67.3 µM
- TGI [8]: > 100 µM
- TGI [9]: > 100 µM

SMILES: COc1ccc(C)cc1Nc1nnc(-c2ccccc2N)s1
- TGI [1]: > 100 µM
- TGI [2]: > 100 µM
- TGI [3]: > 100 µM
- TGI [4]: > 100 µM
- TGI [5]: 15 µM
- TGI [6]: > 100 µM
- TGI [7]: > 100 µM
- TGI [8]: > 100 µM
- TGI [9]: > 100 µM
